Experimental data taken from PMC9503112, “Synthesis, Molecular Docking, In Vitro and In Vivo Studies of Novel Dimorpholinoquinazoline-Based Potential Inhibitors of PI3K/Akt/mTOR Pathway” (International Journal of Molecular Sciences, 2022).

Key:
[1] = target: T1, recombinant PI3K (p110α/p85α) (Homo sapiens, UniProt P42336); assay: PI3K inhibition assay (HTRF); type: biochemical; settings: FRET/HTRF detection; approximate; read-out: IC50 PI3Kα
T1 construct: purchased Millipore 14-602
Description: The PI 3-Kinase (Class I) HTRF Assay Kit (Cat# 33-016 from Millipore) was used to determine the activity of recombinant PI3K (p110α/p85α) human (Cat# 14-602 from Millipore). The kit was supplemented with ATP (Cat# A26209 from Sigma-Aldrich, St. Louis, MI, USA), DL-dithiothreitol (Cat# S-[…]-1 from Sigma-Aldrich), and Wortmannin inhibitor (Cat# 12-338 from Millipore, Burlington, MA, USA). The latter was used at 0.1 μM concentration. For measurements, a Victor ×5 plate reader (PerkinElmer, 2030, Waltham, MA, USA) was used in TRF mode with excitation at 340 nm. Fluorescence emission was recorded at 613 and 670 nm in a 384-well plate (Cat# S-CLS3658 from Sigma-Aldrich) at a time interval of 150-350 μs. The enzymatic reaction and the determination of its products were carried out according to the recommendations of the reagent kit manufacturer (Millipore) in two wells for each sample. In calculations, readings in parallel wells were averaged. The calculations were made according to the recommendations of the equipment manufacturer.

MCF7 cells = assay: MCF7 proliferation with 7c in combination with metformin; type: cell-based, human; settings: 7c combined with metformin; printed as up to 4 nM
Description: Hyperglycemia is one of the most frequent side effects of pan- and isoform-selective PI3K inhibitors. Drug-induced inhibition of PI3K reduces glucose uptake that stimulates insulin secretion. Long-term therapy with PI3K inhibitors can cause insulin resistance. […] We have previously analyzed the antiproliferative potency of metformin (MF) against MCF7 breast cancer cells. Metformin induced a partial restoration of the cancer cell sensitivity to hormonal and target drugs. MF caused 50% suppression of MCF7 cell growth at a concentration of 5.8 mM [54]. Based on this fact, MF at the concentrations that had no significant antiproliferative effect was used in the combination with the lead compound. […]
Human breast cancer MCF7, MDA-MB-231, SkBr-3 (purchased from the ATCC collection), human keratinocytes HaCaT, murine fibroblasts L929 and macrophages J774 cells (Collection of Shemyakin-Ovchinnikov Institute of Bioorganic Chemistry RAS) were cultured in standard DMEM or RPMI-1640 medium (ThermoScientific, Waltham, MA, USA) supplemented with 10% fetal bovine serum (FBS, Cytiva, Marlborough, MA, USA) at 37 °C, 5 % CO2 and 80–85% humidity (NuAir CO2 incubator). The cell growth was evaluated by MTT (3-[4,5-dimethylthiazol-2-yl]-2,5-diphenyltetrazolium bromide) test. […] The absorbance of solutions was measured at 540 nm with a MultiScan reader (ThermoFisher). […]

T1 sequence (P42336 whole entry): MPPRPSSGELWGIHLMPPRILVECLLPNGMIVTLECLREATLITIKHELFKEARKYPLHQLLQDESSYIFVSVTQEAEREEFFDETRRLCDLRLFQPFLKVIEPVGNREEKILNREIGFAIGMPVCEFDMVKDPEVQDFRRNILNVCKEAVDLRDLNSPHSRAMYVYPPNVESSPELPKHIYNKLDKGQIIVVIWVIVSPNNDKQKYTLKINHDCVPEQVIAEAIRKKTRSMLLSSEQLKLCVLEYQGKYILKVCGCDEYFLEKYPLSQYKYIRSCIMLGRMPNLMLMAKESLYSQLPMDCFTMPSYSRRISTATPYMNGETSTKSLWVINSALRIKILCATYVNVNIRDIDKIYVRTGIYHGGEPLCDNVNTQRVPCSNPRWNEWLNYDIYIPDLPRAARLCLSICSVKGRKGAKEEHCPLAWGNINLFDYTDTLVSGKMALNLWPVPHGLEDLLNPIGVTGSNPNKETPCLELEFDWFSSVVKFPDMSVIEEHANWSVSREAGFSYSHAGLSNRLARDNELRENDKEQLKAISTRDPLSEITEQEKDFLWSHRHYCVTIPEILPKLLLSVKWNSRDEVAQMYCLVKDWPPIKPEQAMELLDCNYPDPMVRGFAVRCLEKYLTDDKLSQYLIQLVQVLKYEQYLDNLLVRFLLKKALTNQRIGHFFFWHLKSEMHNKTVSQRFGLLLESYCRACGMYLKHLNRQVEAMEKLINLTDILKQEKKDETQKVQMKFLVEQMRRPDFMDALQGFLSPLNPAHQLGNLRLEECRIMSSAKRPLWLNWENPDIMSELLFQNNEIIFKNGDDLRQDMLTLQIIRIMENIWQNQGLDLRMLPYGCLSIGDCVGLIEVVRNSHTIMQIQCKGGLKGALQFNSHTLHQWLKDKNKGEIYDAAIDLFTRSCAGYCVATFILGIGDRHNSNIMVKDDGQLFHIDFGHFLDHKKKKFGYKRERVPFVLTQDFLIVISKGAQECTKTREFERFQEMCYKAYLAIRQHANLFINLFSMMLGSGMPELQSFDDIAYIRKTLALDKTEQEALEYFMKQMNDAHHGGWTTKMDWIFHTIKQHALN
T1 sequence (P27986 whole entry partner): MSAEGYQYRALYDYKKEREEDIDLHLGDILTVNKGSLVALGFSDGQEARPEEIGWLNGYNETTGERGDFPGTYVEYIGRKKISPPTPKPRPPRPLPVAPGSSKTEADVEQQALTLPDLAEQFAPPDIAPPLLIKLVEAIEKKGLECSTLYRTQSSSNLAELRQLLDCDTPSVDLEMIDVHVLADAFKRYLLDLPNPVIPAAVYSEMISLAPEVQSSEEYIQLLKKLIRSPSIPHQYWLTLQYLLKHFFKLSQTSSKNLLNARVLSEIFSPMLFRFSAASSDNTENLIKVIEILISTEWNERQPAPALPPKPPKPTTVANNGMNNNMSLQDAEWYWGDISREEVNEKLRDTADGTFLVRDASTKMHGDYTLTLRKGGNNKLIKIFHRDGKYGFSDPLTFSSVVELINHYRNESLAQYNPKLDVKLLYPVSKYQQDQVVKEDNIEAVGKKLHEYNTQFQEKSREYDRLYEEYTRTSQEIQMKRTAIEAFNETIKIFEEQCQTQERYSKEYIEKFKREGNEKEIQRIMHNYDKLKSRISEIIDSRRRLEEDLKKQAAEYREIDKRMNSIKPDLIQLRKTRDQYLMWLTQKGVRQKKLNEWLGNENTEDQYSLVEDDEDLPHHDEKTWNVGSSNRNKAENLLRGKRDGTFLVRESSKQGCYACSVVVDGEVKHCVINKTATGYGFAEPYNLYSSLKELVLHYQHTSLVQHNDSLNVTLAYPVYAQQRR

Compound: O=C(NCCc1cccnc1)Nc1ccc(-c2ccc3c(N4CCOCC4)nc(N4CCOCC4)nc3c2)cc1 [Compound 7c, 1-(4-(2,4-Dimorpholinoquinazolin-7-yl)phenyl)-3-(2-(pyridin-3-yl)ethyl)urea]
- IC50 [1]: ~500 µM
- Antiproliferative activity in combination with metformin (MCF7 cells): up to 4 nM
